Measurements: the supplement of paper PMC10307832

Experiments:
Assay in all cases: relative viability (nuclei count vs DMSO), 5 days (fraction); higher = more cells survive
R406 + OSI-027 = compound: COc1cc(Nc2ncc(F)c(Nc3ccc4c(n3)NC(=O)C(C)(C)O4)n2)cc(OC)c1OC [R406] + COc1cccc2cc(-c3nc([C@H]4CC[C@H](C(=O)O)CC4)n4ncnc(N)c34)[nH]c12 [OSI-027] (partner 0.5 µM)
Procedure, shortened: (§1)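 Values are medians from duplicate plates. Each reflects relative viability, defined as the nuclei count of treated wells over that of vehicle wells. Lung cancer cell lines in 1536-well plates were pin-tool dosed one day after seeding with one drug alone or with a fixed anchor-drug dose plus five library-drug doses (not always all listed) in √10 steps, then fixed, stained and imaged at 4× after 5 days.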

Daporinad + Luminespib = compound: O=C(/C=C/c1cccnc1)NCCCCC1CCN(C(=O)c2ccccc2)CC1 [Daporinad] + CCNC(=O)c1noc(-c2cc(C(C)C)c(O)cc2O)c1-c1ccc(CN2CCOCC2)cc1 [Luminespib] (partner 0.01 µM)
Procedure, shortened: as §1

Daporinad + Lapatinib = compound: O=C(/C=C/c1cccnc1)NCCCCC1CCN(C(=O)c2ccccc2)CC1 [Daporinad] + CS(=O)(=O)CCNCc1ccc(-c2ccc3ncnc(Nc4ccc(OCc5cccc(F)c5)c(Cl)c4)c3c2)o1 [Lapatinib] (partner 2 µM)
Procedure, shortened: as §1

Daporinad + AZD7762 = compound: O=C(/C=C/c1cccnc1)NCCCCC1CCN(C(=O)c2ccccc2)CC1 [Daporinad] + NC(=O)Nc1cc(-c2cccc(F)c2)sc1C(=O)N[C@H]1CCCNC1 [AZD7762] (partner 0.2 µM)
Procedure, shortened: as §1

Cell Line	relative viability (R406 + OSI-027; first compound 0.08 µM)	relative viability (R406 + OSI-027; first compound 0.253 µM)	relative viability (R406 + OSI-027; first compound 0.8 µM)	relative viability (R406 + OSI-027; first compound 2.53 µM)	relative viability (R406 + OSI-027; first compound 8 µM)	relative viability (Daporinad + Luminespib; first compound 0.0005 µM)	relative viability (Daporinad + Luminespib; first compound 0.001581 µM)	relative viability (Daporinad + Luminespib; first compound 0.005 µM)	relative viability (Daporinad + Luminespib; first compound 0.01581 µM)	relative viability (Daporinad + Lapatinib; first compound 0.0005 µM)	relative viability (Daporinad + Lapatinib; first compound 0.001581 µM)	relative viability (Daporinad + Lapatinib; first compound 0.005 µM)	relative viability (Daporinad + Lapatinib; first compound 0.01581 µM)	relative viability (Daporinad + AZD7762; first compound 0.0005 µM)	relative viability (Daporinad + AZD7762; first compound 0.001581 µM)	relative viability (Daporinad + AZD7762; first compound 0.005 µM)	relative viability (Daporinad + AZD7762; first compound 0.01581 µM)
LU99A	0.322	0.283	0.308	0.253	0.276	0.229	0.227	0.286	0.223	0.839	1.14	0.98	1.17	0.31	0.281	0.377	0.307
NCI-H650	0.453	0.553	0.465	0.45	0.344	0.82	0.825	0.734	0.953	0.889	1.25	1.19	1.31	0.931	0.775	1.32	1.06
NCI-H1755	0.667	0.78	0.692	0.331	0.376	0.31	0.381	0.541	0.488	1	1.03	1.06	1.07	0.429	0.43	0.462	0.5
NCI-H3122	0.956	1.06	1.01	0.319	0.78	0.0688	0.0544	0.0785	0.0818	1.01	1.12	1.01	1.02	0.978	1.05	1.09	0.825
NCI-H358	0.752	0.678	0.893	0.208	0.118	0.27	0.305	0.599	0.359	0.359	0.634	0.533	0.451	0.473	0.584	0.506	0.67
PC-3 [JPC-3]	0.854	0.872	0.932	0.494	0.427	0.68	0.677	0.73	0.735	0.433	0.459	0.437	0.455	0.734	0.829	0.9	0.836
NCI-H2347	0.381	0.436	0.479	0.278	0.253	0.607	0.43	0.322	0.431	1.14	0.781	1.06	1.05	0.785	0.814	0.726	0.547
EKVX	0.721	0.739	0.778	0.601	0.552	0.889	0.933	0.839	0.922	0.169	0.223	0.231	0.251	0.586	0.676	0.933	0.705
HOP-62	0.774	0.958	0.854	0.64	0.654	0.898	0.963	1.03	0.688	–	1.13	1.04	0.505	0.406	0.423	0.665	0.262
NCI-H2126	0.624	0.78	0.661	0.606	0.641	0.883	0.897	0.921	0.924	0.799	0.677	0.752	0.82	1.1	0.976	0.992	1.04
NCI-H1944	0.398	0.41	0.419	0.304	0.242	0.85	0.802	0.829	0.729	0.849	0.875	0.802	0.804	0.474	0.453	0.6	0.579
EPLC-272H	0.275	0.291	0.253	0.203	0.229	0.237	0.433	0.388	0.393	0.772	1.18	0.936	1.29	0.19	0.271	0.268	0.297
RERF-LC-KJ	0.609	0.588	0.623	0.432	0.392	1.22	1.4	1.18	1.07	0.682	0.803	0.799	0.888	–	1.2	1.14	1.11
PC-14	0.795	1.11	1.41	0.428	0.121	–	0.106	0.196	0.196	0.271	0.383	0.31	0.393	0.22	0.363	0.362	0.45
NCI-H2405	0.658	0.686	0.608	0.556	0.283	0.853	0.884	1.01	0.723	1.1	1.25	1.12	0.444	0.786	0.856	0.792	0.357
NCI-H1395	0.592	0.73	0.754	0.429	0.424	0.774	0.657	0.722	0.782	0.885	1.12	0.977	1.23	0.386	0.391	0.441	0.384
NCI-H727	0.712	0.829	0.641	0.304	0.537	0.257	0.27	0.37	0.195	0.968	0.831	0.853	0.76	0.757	0.466	0.513	0.439

Cell Line	relative viability (R406 + OSI-027; first compound 0.08 µM)	relative viability (R406 + OSI-027; first compound 0.253 µM)	relative viability (R406 + OSI-027; first compound 0.8 µM)	relative viability (R406 + OSI-027; first compound 2.53 µM)	relative viability (R406 + OSI-027; first compound 8 µM)	relative viability (Daporinad + Luminespib; first compound 0.0005 µM)	relative viability (Daporinad + Luminespib; first compound 0.001581 µM)	relative viability (Daporinad + Luminespib; first compound 0.005 µM)	relative viability (Daporinad + Luminespib; first compound 0.01581 µM)	relative viability (Daporinad + Lapatinib; first compound 0.0005 µM)	relative viability (Daporinad + Lapatinib; first compound 0.001581 µM)	relative viability (Daporinad + Lapatinib; first compound 0.005 µM)	relative viability (Daporinad + Lapatinib; first compound 0.01581 µM)	relative viability (Daporinad + AZD7762; first compound 0.0005 µM)	relative viability (Daporinad + AZD7762; first compound 0.001581 µM)	relative viability (Daporinad + AZD7762; first compound 0.005 µM)	relative viability (Daporinad + AZD7762; first compound 0.01581 µM)
NCI-H1915	0.619	0.708	0.581	–	0.4	0.893	0.703	0.786	0.824	0.983	1.03	1.03	0.969	0.667	0.742	0.716	0.71
CAL-12T	0.654	0.702	0.895	0.133	0.209	0.17	0.41	0.545	0.193	0.599	–	0.722	0.413	0.553	0.528	0.609	0.333
LXF-289	0.805	0.84	0.931	0.377	0.487	0.668	0.75	0.766	0.657	0.847	0.989	0.91	0.95	1.01	1.14	1.19	1.19
201T	0.974	0.762	0.705	0.683	0.517	1.04	1.02	1.12	1.11	0.957	1.05	1.02	1.04	0.572	0.673	0.671	0.535
NCI-H23	0.588	0.647	0.602	–	0.269	0.197	0.231	0.203	0.215	1.17	0.987	0.94	0.41	0.273	0.181	0.274	0.203
LOU-NH91	0.728	0.714	0.651	0.448	0.429	0.331	0.364	0.291	0.382	0.767	0.788	0.932	0.952	0.761	0.803	0.905	0.816
NCI-H2085	0.863	0.968	0.861	0.259	0.345	0.386	0.434	0.549	0.503	0.739	0.741	0.871	0.855	0.879	–	1.03	1.1
BEN	0.291	0.299	0.286	0.298	0.281	0.356	0.559	0.456	0.437	0.646	0.688	0.858	1.11	0.779	0.661	0.812	0.824
LK-2	0.218	0.215	0.186	0.149	0.146	0.181	0.213	0.176	0.147	0.877	0.967	0.546	0.324	0.523	0.36	0.199	0.141
NCI-H322M	0.524	0.514	0.602	0.348	0.347	0.997	0.97	0.853	0.608	0.648	0.671	0.584	0.597	0.579	0.592	0.54	0.456
NCI-H596	0.793	0.682	0.903	0.329	0.269	0.919	1.04	1.05	0.479	0.941	1.22	1.08	0.544	0.867	1.09	1.27	1.03
ABC-1	0.554	0.477	0.531	0.341	0.304	0.524	0.583	0.527	0.498	1.14	0.952	1.24	0.86	0.83	0.798	0.823	1.1
NCI-H1666	0.829	0.851	0.88	0.829	0.642	1.01	0.985	1.07	1.03	0.612	0.633	0.739	0.752	0.773	0.874	0.941	0.851
NCI-H1993	0.546	0.521	0.55	0.515	0.552	0.795	0.797	0.787	0.891	0.78	0.811	0.977	0.793	0.645	0.774	0.787	0.962
NCI-H1975	0.699	0.678	0.854	0.252	0.15	0.206	0.262	0.183	0.3	1.03	1	0.917	0.826	0.61	0.752	0.729	0.747
HCC-44	0.435	0.662	0.599	0.293	0.363	1.07	1.12	0.942	1.28	1.06	1.08	1.07	0.937	1.02	0.967	0.994	1.03
